Reference: US20220290111A1, “NUCLEIC ACIDS, PROTEINS AND PROCESSES FOR PRODUCING AMIDES” (Leibniz-Institut für Pflanzenbiochemie, priority 2019, published 2022)

What was measured:
Assay type in all cases: biochemical, Piper nigrum
PipSyn1 [1] = experiment: in vitro enzyme assay of amide formation from CoA-ester and amine, PipSyn1; conditions: 100% = 2 nkat/mg PipSyn2 with piperoyl-CoA and piperidine, quantification by mass detection; for relative activity, myristoyl-CoA: CoA-ester myristoyl-CoA; for relative activity, hexanoyl-CoA: CoA-ester hexanoyl-CoA
PipSyn1 [2] = experiment: as above; conditions: 100% = 2 nkat/mg PipSyn2 with piperoyl-CoA and piperidine, UV quantification; for relative activity, 3,4-methylenedioxycinnamoyl-CoA: CoA-ester 3,4-methylenedioxycinnamoyl-CoA; for relative activity, benzoyl-CoA: CoA-ester benzoyl-CoA; for relative activity, piperoyl-CoA: CoA-ester piperoyl-CoA
Procedure: Standard assays are routine for a person of average skill in the art.
(§1) A standard enzyme assay contains:
(§2) 10 μl enzyme solution in 30 mM Tris/HCl buffer pH 8.0 (10% glycerol, 1 mM DTT)
(§3) 1 μg-5 μg protein, amount determined according to Bradford
(§4) 10 μl piperidine, 100 mM (in water) 10 μl 5 mM DTT in water 10 μl piperoyl-CoA (PipCoA) 2.5 mM in 25% DMSO/75% water • All reagents (except PipCoA) were mixed in Eppendorf tubes and incubated in a standard (Eppendorf) incubator set at 30° C. Reagents were pre-equilibrated for 1 min to this temperature. • Assay start: addition of 10 μl PipCoA 2.5 mM in 25% DMSO/75% water to a final concentration of 500 μM PipCoA. • Assay stop after 5 min addition of 10 μl stop solution such as 1% formic acid/50% acetonitrile
(§5) Mix by vortex, incubate on ice for 5 minutes and centrifugation for 1 min at 20,000 g to precipitate any debris or insoluble material e.g. residual protein.
(§6) Remove 50 μl of supernatant for analysis of products (amides) by LC-MS. Injected to an RP-HPLC column are 10 μl (out of 50 μl). • Product formation is recorded via UV/PDA (photodiode array) detector and LC-MS and simultaneously. • Identification of piperine was achieved by use of a commercial standard and by LC-MS detection of calculated product masses at m/z 286 and UV-detection at 340 nm. • Quantification of product formation was achieved by a standard graph of piperine from 0.1-100 μM (commercial standard, Sigma) and recorded and calculated intensities of mass (peak area) and/or UV-peak area. • Identification and separation of piperine was according to a corresponding standard and a mass signal of m/z 286.1 in pos. mode and its corresponding absorbance at λmax-340 nm.
(§7) Quantification was performed based on a commercially available piperine standard. The peak area of the peak due to piperine in the LC trace was determined. Peaks due to possible isomerization products of piperine were neglected for the determination of enzyme activity of piperine formation. […] Before calculating enzyme activity in terms of nkat (nmole of piperine formed per second), the amount of non-enzymatically formed piperine is subtracted from the amount determined in the presence of protein.
(§8) Protein amounts were determined photometrically by the Bradford assay of combining a defined volume, preferentially 10 μl of the (partly) purified PipSyn1 and PipSyn2 enzyme and 990 μl of Bradford reagent, and calculating the resulting absorbance at λ=595 nm based on a standard curve made with a serial dilution of commercially available Bovine Serum Albumin fraction V in water.
(§9) This Example provides in Table 1 substrates which were tested for enzyme activity with both enzymes. Activity data were calculated from the UV-(PDA) area in the range of 320-370 nm. The data are supported by LC-MS measurements of corresponding m/z values recorded in positive ionization mode and based on calculated expected masses. Mass accuracy of Waters QDA-detector is +/−0.2 Dalton. Contrary to the procedure of Example 3, for the determination of the activity of the reaction of piperoyl-CoA and piperidine as substrates, the sum of all peaks in the LC trace due to species having calculated m/z values of the expected products was used for quantification of product, assuming the same ionization efficiency in positive ionization mode as in case of piperine for all molecule species.

recombinant PipSyn2 = experiment: in vitro enzyme assay of amide formation from CoA-ester and amine, PipSyn2; conditions: for relative activity, 3,4-methylenedioxycinnamoyl-CoA / relative activity, myristoyl-CoA / relative activity, piperoyl-CoA / relative activity, hexanoyl-CoA: PipSyn2; for relative activity, 3,4-methylenedioxycinnamoyl-CoA: CoA-ester 3,4-methylenedioxycinnamoyl-CoA; for relative activity, 3,4-methylenedioxycinnamoyl-CoA / relative activity, myristoyl-CoA / relative activity, hexanoyl-CoA: 100% = 2 nkat/mg PipSyn2 with piperoyl-CoA and piperidine; for relative activity, 3,4-methylenedioxycinnamoyl-CoA / relative activity, piperoyl-CoA: UV quantification; for relative activity, myristoyl-CoA: CoA-ester myristoyl-CoA; for relative activity, myristoyl-CoA / relative activity, hexanoyl-CoA: quantification by mass detection; for relative activity, piperoyl-CoA: CoA-ester piperoyl-CoA, 100% = 2 nkat/mg PipSyn2 with piperidine, assay as Example 3; for relative activity, hexanoyl-CoA: CoA-ester hexanoyl-CoA
Procedure: Enzyme activity test with regard to piperine formation in case of PipSynthase 2.
as §1, §2, §3, §4, §5, §6, §7, §8, §9

Molecule | relative activity, myristoyl-CoA (PipSyn1 [1]) | relative activity, 3,4-methylenedioxycinnamoyl-CoA (PipSyn1 [2]) | relative activity, benzoyl-CoA (PipSyn1 [2]) | relative activity, piperoyl-CoA (PipSyn1 [2]) | relative activity, 3,4-methylenedioxycinnamoyl-CoA (recombinant PipSyn2) | relative activity, myristoyl-CoA (recombinant PipSyn2) | relative activity, piperoyl-CoA (recombinant PipSyn2) | relative activity, hexanoyl-CoA (PipSyn1 [1]) | relative activity, hexanoyl-CoA (recombinant PipSyn2) | catalytic activity taken as 100% (recombinant PipSyn2; recombinant PipSyn2 with piperoyl-CoA and piperidine as substrates)
NCC1CCNCC1 [4-aminomethylpiperidine] |  | 6% |  | 17% | 7% |  | 36% |  |  | 
C1CCNCC1 [piperidine] | 10% | 184% | 7% | 117% | 38% | 10% | 100% | 23% | 12% | 
NCCCCCCCN [1,7-diaminoheptane] |  | 104% | 2% | 26% |  |  | 2% |  |  | 
PipSyn2: recombinant His-tagged piperine synthase from Piper nigrum, amino acid sequence SEQ ID NO: 4, expressed in E. coli (protein, listed as Piper nigrum, His tag) MAPSSQLEFNVVRKQPELLPPAEPTPFEWKELSDIDDQDGLRLHISGFFIYPPSTMSNVGRDNVARDIRLGLSKAMVFYYPLAGRIREGPNRKLSVECTGEGIMYCEADADVRLEQFGDIGALSMPFPFMDKVMFETVDDGILGTPLMYFQSTRFICGGIVIAGCYNHAIADGLGFYMFMAAAAQLARGAASPTPLPVWQRERLLSRVPPRVTFIHHEYIHDTPKTETANPLDNEPWPLHSIFFTRVDVAALRAQLPGHLRKSATSFEIISACLWRCRTAALRFAPDELSRLIIAVNARTKFGPPLPQGYYGNSIMLPMVVSEAGKLVLSGLGYAVELVIEAKGKVTEEYVKSVADYLVLNGRPHYVVTNTYLVSDLRQLVEMSKFDWGWGKPAYVGPADVGENAISFLATLKNGEEEGVVVPIRLPESAVGRFKSEVSKMVSFGCLEDVKPNRDGYLSRM |  |  |  |  |  |  |  |  |  | 2 nkat/mg

Second part, led by results:

relative activity, myristoyl-CoA (PipSyn1 [1]) | relative activity, 3,4-methylenedioxycinnamoyl-CoA (PipSyn1 [2]) | relative activity, benzoyl-CoA (PipSyn1 [2]) | relative activity, piperoyl-CoA (PipSyn1 [2]) | relative activity, 3,4-methylenedioxycinnamoyl-CoA (recombinant PipSyn2) | relative activity, myristoyl-CoA (recombinant PipSyn2) | relative activity, piperoyl-CoA (recombinant PipSyn2) | relative activity, hexanoyl-CoA (PipSyn1 [1]) | relative activity, hexanoyl-CoA (recombinant PipSyn2) | Molecule | catalytic activity taken as 100% (recombinant PipSyn2; recombinant PipSyn2 with piperoyl-CoA and piperidine as substrates)
20% | 173% | 6% | 66% | 2% | 15% | 16% |  |  | CC(C)CN [isobutylamine] | 
 | 10% |  | 2% |  |  |  | 2% | <1% | COc1cc(CN)ccc1O [vanillylamine] | 
 | 7% |  | 2% |  |  |  |  |  | NCCc1ccc(O)c(O)c1 [dopamine] | 
3% | 186% | 1% | 77% | 3% | <1% | 34% | 300% | 60% | C1CCNC1 [pyrrolidine] | 
